The target in one assay is T1, KAT6A (Homo sapiens, UniProt Q92794).
T1 construct: These studies were conducted in the HCC1954 cell line which harbors a KAT6A copy number amplification; endogenous in cells; host or cells: HCC1954
The assay can be described thus: Western Blot KAT6A Degradation Assessment. Format: cell-based. The conditions noted are these: 0.1 μM compound, 24 hours of treatment, HCC1954 cell line, KAT6A normalized to GAPDH and DMSO. Here is the method: The activity of compounds was evaluated by measuring KAT6A protein levels as a readout of KAT6A degradation ability using western blot. These studies were conducted in the HCC1954 cell line which harbors a KAT6A copy number amplification. Cells were maintained in a 37° C. incubator at 5% CO2 in the following media: RPMI 1640, ATCC© Modification (Gibco, A10491-01) supplemented with 10% v/v FBS (Gibco, 26140-079) and 1% penicillin streptomycin (Gibco, 15140-122). Cells were seeded in 6-well plates at a density of 300,000 cells/well and allowed to attach overnight in an incubator. Compounds dissolved in DMSO were prepared at 1000× the desired final concentration such that the final percentage of DMSO was 0.1%. After 24 hours of treatment, cells were washed with phosphate buffered saline (PBS) (Corning, 21-040-CV), detached with trypsin-EDTA (Gibco, #25200-056), and pelleted in complete RPMI media in a microcentrifuge for 5 min at 1500 rpm. Protein was extracted from cell pellets by re-suspending in 15 uL PBS before adding 45 uL of lysis buffer composed of 4% SDS, 1× protease and phosphatase inhibitors, and 1 mM PMSF (Cell Signaling Technology, #8553S). Lysates were transferred to homogenizer columns (Omega Biotek, #HCR003) and centrifuged for 1.5 min at 12,000 rpm.
Homogenized lysates were quantified by BCA assay (ThermoScientific, Pierce BCA Protein Assay, #23223, #23224) as per manufacturer instructions. Samples were then diluted in 4× Laemmli buffer (Biorad, #1610747) to a 1× solution which was boiled at 95° C. for 5 minutes. To assess KAT6A protein expression, samples were run on 26 well gels (Biorad, 4-15% Criterion TGX Precast gels, #5671085) at 120V for approximately 1 hour. Protein was transferred to low-fluorescence PVDF membranes (Millipore Sigma, #IPFL00010) using Trans-Blot Turbo Transfer System (Biorad). Membranes were then probed with KAT6A (Cell Signaling Technology, #78462) and GAPDH (Cell Signaling Technology, #5174S) primary, and fluorescently tagged secondary antibodies (LI-COR, IRDye 800CW Goat anti-rabbit #926-32211; IRDye 680RD Goat anti-mouse #926-68070) at manufacturer recommended conditions using the iBind Flex western device (Thermofisher, SLF2000). Membranes were washed briefly in water and scanned with a LI-COR Odyssey CLx. Quantification of bands was assessed using Image Studio Ver 5.2. to normalize KAT6A expression to GAPDH loading controls before representing KAT6A expression as a percentage of that observed in DMSO.

Another assay concerns the target T2, HiBit tagged KAT6A (Homo sapiens, UniProt Q92794).
T2 construct: host or cells: HeLa
Briefly: HiBit KAT6A Degradation Assessment. The settings on record: HeLa cells with HiBit tagged KAT6A, 18 h of treatment, 9-point serial dilution. Format: cell-based. The essentials: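 HeLa cells expressing HiBiT-tagged KAT6A exposed to a 9-point compound dilution series for 18 h at 37 °C. KAT6A level read by HiBiT lytic luminescence, normalized to background and DMSO controls; DC50 and Dmax from four-parameter logistic fit.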
For orientation: With HiBiT, luminescence reflects the tagged protein that the partner subunit can reach.

T2 sequence (Q92794 whole entry): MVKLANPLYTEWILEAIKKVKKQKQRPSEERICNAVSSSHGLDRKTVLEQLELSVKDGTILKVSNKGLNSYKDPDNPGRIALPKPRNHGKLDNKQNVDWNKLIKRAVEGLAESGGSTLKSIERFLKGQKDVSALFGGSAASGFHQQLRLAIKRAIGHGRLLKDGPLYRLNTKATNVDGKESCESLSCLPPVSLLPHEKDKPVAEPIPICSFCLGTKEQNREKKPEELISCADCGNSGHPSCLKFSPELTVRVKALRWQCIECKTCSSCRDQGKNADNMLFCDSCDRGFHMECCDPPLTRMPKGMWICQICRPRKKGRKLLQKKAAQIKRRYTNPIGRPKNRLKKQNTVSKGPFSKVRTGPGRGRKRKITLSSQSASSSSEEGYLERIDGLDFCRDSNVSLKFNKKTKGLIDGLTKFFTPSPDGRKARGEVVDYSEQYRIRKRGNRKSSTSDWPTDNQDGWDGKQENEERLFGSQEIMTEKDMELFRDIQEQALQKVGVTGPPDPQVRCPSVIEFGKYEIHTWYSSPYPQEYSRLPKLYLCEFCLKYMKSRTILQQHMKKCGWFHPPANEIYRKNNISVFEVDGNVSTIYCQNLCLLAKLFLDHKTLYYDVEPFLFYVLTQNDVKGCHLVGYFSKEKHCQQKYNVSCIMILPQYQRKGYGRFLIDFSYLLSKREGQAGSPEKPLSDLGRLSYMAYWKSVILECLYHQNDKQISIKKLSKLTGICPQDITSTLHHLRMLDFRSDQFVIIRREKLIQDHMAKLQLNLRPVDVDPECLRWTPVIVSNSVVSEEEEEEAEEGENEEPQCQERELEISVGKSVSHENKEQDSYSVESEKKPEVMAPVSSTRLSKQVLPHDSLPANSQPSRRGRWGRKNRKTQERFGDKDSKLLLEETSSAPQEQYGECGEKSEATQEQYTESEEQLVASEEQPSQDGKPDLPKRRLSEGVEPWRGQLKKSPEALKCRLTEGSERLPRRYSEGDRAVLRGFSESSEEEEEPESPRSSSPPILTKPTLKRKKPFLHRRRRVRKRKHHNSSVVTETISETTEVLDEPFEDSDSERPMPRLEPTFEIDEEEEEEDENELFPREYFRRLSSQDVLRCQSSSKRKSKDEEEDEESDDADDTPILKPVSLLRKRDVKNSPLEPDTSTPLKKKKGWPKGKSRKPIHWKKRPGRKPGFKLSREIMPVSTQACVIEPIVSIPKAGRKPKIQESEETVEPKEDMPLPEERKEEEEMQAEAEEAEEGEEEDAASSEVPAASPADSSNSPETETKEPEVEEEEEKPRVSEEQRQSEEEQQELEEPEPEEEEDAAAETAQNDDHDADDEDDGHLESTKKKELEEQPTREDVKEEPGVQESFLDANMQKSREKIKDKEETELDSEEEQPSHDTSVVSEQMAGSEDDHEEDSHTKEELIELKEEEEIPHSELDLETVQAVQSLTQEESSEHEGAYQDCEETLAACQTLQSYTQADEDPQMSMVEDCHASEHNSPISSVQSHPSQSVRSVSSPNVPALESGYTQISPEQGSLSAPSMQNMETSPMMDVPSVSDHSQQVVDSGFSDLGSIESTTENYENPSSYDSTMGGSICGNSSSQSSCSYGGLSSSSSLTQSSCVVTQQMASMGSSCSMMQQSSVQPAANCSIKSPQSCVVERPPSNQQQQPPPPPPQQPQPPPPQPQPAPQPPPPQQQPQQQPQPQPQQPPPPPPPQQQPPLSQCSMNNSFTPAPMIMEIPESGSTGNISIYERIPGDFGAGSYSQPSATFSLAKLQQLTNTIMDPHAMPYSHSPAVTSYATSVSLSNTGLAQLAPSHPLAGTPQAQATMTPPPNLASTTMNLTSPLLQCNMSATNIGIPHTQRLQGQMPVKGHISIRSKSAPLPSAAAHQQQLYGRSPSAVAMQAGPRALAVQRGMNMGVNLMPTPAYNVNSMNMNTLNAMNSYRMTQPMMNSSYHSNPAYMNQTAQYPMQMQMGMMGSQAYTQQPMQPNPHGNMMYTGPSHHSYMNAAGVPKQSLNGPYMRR
T1 sequence (Q92794 whole entry): as above

As for `COc1cc(Cn2cccn2)cc2onc(NS(=O)(=O)c3cccc(N4CCN(C5CC6(CCN(c7ccc8c(c7)C(=O)N(C7CCC(=O)NC7=O)C8=O)C6)C5)CC4)c3)c12` (centres unmarked) [Example 8, 3-[4-[6-[2-(2,6-Dioxopiperidin-3-yl)-1,3-dioxoisoindol-5-yl]-6-azaspiro[3.4]octan-2-yl]piperazin-1-yl]-N-[4-methoxy-6-(pyrazol-1-ylmethyl)-1,2-benzoxazol-3-yl]benzenesulfonamide], the inhibition (in general, the relative decrease from the control value, in per cent) at 0.1 µM against KAT6A is above 75%. For the same molecule, at HiBit tagged KAT6A, the DC50 (as a rule, the midpoint of the concentration-degradation curve) was in the range of 10 to 100 nM and the maximal degradation (Dmax) (as a rule, the largest share of the target that was removed) fell in the range of 50 to 75%.

At KAT6A, `COc1cc(Cn2cccn2)cc2onc(NS(=O)(=O)c3cccc(N4CCN(CCC5CCN(c6ccc7c(c6)C(=O)N(C6CCC(=O)NC6=O)C7=O)C5)CC4)c3)c12` (centres unmarked) [Example 9, 3-[4-[2-[1-[2-(2,6-Dioxopiperidin-3-yl)-1,3-dioxoisoindol-5-yl]pyrrolidin-3-yl]ethyl]piperazin-1-yl]-N-[4-methoxy-6-(pyrazol-1-ylmethyl)-1,2-benzoxazol-3-yl]benzenesulfonamide] gave an inhibition at 0.1 µM of 0 to 50%. For the same molecule, on HiBit tagged KAT6A, the DC50 fell in the range of 10 to 100 nM and the Dmax fell in the range of 50 to 75%.

In the case of `COc1cc(Cn2cccn2)cc2onc(NS(=O)(=O)c3cccc(N4CCN(CC5CCN(c6ccc7c(c6)CN(C6CCC(=O)NC6=O)C7=O)C5)CC4)c3)c12` (centres unmarked) [Example 10, 3-[4-[[1-[2-(2,6-Dioxopiperidin-3-yl)-1-oxo-3H-isoindol-5-yl]pyrrolidin-3-yl]methyl]piperazin-1-yl]-N-[4-methoxy-6-(pyrazol-1-ylmethyl)-1,2-benzoxazol-3-yl]benzenesulfonamide], at KAT6A, the inhibition at 0.1 µM lay within 50 to 75%. Further, the Dmax at HiBit tagged KAT6A lay within 25 to 50%.

In turn, `COc1cc(Cn2cccn2)cc2onc(NS(=O)(=O)c3cccc(N4CC5(CN(CC6CCN(c7ccc8c(c7)C(=O)N(C7CCC(=O)NC7=O)C8=O)C6)C5)C4)c3)c12` (centres unmarked) [Example 11, 3-[6-[[1-[2-(2,6-dioxopiperidin-3-yl)-1,3-dioxoisoindol-5-yl]pyrrolidin-3-yl]methyl]-2,6-diazaspiro[3.3]heptan-2-yl]-N-[4-methoxy-6-(pyrazol-1-ylmethyl)-1,2-benzoxazol-3-yl]benzenesulfonamide] yielded an inhibition at 0.1 µM at KAT6A of 50 to 75%. Moreover, on HiBit tagged KAT6A, the DC50 fell in the range of 10 to 100 nM and the greatest degradation seen (Dmax) fell in the range of 50 to 75%.

The record behind these values is patent US20230416240A1, “KAT6 TARGETING COMPOUNDS” (Prelude Therapeutics Incorporated, priority 2022, published 2023).
